{
  "source": "paper PMC6934184",
  "about": "“Selective DNA-PKcs inhibition extends the therapeutic index of localized radiotherapy and chemotherapy” (The Journal of Clinical Investigation, 2019)",
  "molecular_target": "T1, MET (cMet) (Homo sapiens, UniProt P08581)",
  "T1 construct": "purchased Thermo Fisher Scientific (Life Technologies) SelectScreen",
  "T1 sequence (P08581 25-1390)": "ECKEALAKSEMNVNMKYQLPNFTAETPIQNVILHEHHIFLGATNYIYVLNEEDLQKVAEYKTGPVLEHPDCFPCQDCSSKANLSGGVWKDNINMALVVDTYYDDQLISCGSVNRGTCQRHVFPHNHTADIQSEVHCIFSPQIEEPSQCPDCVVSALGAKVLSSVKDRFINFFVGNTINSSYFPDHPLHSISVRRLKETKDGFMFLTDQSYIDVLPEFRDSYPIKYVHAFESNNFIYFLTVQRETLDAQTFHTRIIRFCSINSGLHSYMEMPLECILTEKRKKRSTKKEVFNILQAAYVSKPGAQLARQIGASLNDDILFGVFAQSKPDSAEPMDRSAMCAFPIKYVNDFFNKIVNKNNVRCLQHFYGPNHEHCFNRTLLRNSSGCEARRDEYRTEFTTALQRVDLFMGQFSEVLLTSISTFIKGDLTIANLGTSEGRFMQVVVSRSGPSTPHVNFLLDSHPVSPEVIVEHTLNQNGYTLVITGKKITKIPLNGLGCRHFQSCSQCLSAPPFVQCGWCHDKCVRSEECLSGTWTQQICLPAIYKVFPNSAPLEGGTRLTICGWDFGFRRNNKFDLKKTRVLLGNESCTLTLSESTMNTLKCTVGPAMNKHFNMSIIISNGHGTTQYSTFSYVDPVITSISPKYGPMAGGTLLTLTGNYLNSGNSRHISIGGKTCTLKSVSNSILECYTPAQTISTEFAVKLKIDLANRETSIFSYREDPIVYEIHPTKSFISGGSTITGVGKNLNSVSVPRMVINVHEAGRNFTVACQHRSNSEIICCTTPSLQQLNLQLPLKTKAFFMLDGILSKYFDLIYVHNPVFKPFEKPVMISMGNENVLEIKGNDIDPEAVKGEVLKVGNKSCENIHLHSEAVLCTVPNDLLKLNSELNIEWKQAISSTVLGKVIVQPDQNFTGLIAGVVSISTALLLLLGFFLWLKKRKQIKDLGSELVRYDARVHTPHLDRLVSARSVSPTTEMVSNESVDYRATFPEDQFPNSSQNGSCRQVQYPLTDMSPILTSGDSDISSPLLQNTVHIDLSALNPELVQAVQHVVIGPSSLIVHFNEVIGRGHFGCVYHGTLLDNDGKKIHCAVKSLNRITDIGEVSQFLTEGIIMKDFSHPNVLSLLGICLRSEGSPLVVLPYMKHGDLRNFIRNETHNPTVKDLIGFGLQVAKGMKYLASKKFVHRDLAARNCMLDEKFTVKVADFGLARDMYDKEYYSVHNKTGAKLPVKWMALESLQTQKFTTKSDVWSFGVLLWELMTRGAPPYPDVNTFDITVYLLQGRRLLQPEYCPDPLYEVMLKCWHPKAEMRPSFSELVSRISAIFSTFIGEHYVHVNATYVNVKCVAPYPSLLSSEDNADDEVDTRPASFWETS",
  "assay": "SelectScreen Z'LYTE",
  "format": "biochemical",
  "how_it_was_run": "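SelectScreen broad panel; activity (Z'LYTE, Adapta) plus binding formats. ATP: Km app for CSF1R Z'LYTE; 10 for CAMK1 Adapta. Readout = % per kinase.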",
  "data": [
    {"smiles": "CN(C(=O)CN1CCOCC1)c1ccc2sc3c(-c4cccc5c(=O)cc(N6CC7CCC(C6)O7)oc45)cccc3c2c1", "note": "[NU5455]", "values": [
      {"measurement": "inhibition at 1 µM", "result": -15.1, "unit": "%"}
    ]}
  ]
}
